Reference: publication PMC7617978, “Anti-trypanosomal quinazolines targeting lysyl-tRNA synthetases show partial efficacy in a mouse model of acute Chagas disease” (Science translational medicine, 2025)
Like-named read-outs stand apart in the source and are kept apart here.

How the values were obtained:
[1] = test system: T. cruzi (Sylvio X10/7A1 strain) epimastigote; test: microbe, parasite or virus in culture; assay type: cell-based; settings: for Fold-shift (relative to WT): epimastigote; for EC50: Trypanosoma cruzi
[2] = test system: L. donovani (LdBOB) promastigote; test: Drug sensitivity assay, L. donovani promastigotes; assay type: cell-based; settings: for EC50: Leishmania donovani
[3] = target: TcKRS1 (Trypanosoma cruzi, UniProt Q4D7V3); test: TcKRS1 inhibition assay using BIOMOL Green; assay type: biochemical; settings: for IC50: recombinant TcKRS1, 14 μM ATP, 400 μM L-lysine, read-out: IC50 values (95% CI)
Sequence of TcKRS1 (Q4D7V3 entry or part of it): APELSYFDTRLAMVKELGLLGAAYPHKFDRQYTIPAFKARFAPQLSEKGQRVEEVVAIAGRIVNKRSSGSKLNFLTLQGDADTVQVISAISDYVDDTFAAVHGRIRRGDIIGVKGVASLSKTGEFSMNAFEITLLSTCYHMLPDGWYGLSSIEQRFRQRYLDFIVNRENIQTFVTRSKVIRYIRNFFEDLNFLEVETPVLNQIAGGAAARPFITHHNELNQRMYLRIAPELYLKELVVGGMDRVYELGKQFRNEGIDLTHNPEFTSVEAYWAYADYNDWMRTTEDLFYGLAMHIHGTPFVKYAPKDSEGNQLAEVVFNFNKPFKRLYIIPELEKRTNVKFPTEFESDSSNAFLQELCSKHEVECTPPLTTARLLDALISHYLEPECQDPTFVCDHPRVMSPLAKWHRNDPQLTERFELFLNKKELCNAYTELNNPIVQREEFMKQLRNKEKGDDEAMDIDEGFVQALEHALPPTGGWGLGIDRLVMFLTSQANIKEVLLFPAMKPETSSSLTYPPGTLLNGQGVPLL
Procedure: For TcKRS1 (TcCLB.508971.30), synthetic DNA codon-optimized for expression in E. coli and encoding amino acid residues 54–580 of the TcKRS1 protein was synthesized by Genscript and subcloned into a modified pET15b vector, with an N-terminal 6×His tag and a Tobacco Etch Virus (TEV) cleavage site. The resulting plasmid was transformed into E. coli BL21(DE3) (Stratagene) for expression. A 10-ml starter culture was grown at 37°C overnight, then used to inoculate 1 L of LB Autoinduction media that was grown for 48 h at 20°C. Cell pellets were resuspended in buffer containing 25 mM Tris, 500 mM NaCl, 20 mM imidazole, pH 8.5, and lysed using a continuous flow cell disrupter (Constant Systems). Recombinant TcKRS1 was purified using Ni^2+ affinity chromatography, the 6×His tag cleaved using TEV protease and the tag and protease removed by a second Ni^2+ affinity chromatography step. The protein was further purified via size exclusion chromatography, where TcKRS1 eluted with a mass consistent with the protein forming a dimer. Purified recombinant protein were concentrated to ~1 mg/ml in buffer (25 mM Tris, 150 mM NaCl, 10 % glycerol, pH 7.5) for assay.
The enzymatic activity of recombinant KRS was determined by monitoring the concentration of pyrophosphate released during the first step of the reaction catalyzed by recombinant TcKRS1. The pyrophosphate formed was converted to two inorganic phosphate molecules using a pyrophosphatase enzyme and concentrations of the resulting phosphate were measured using the BIOMOL Green reagent (Enzo Life Sciences). All screening assays were performed in 384-well, clear, flat-bottom plates (Greiner) at room temperature (~23°C) in 50 μl reaction volumes.
To generate IC50 data for test compounds, 10-point inhibitor dose-response curves were prepared in 384-well assay plates using an ECHO 550 acoustic dispenser (Labcyte). Following preparation of the inhibitor curves, assays were carried out for recombinant KRS enzymes as follows: TcKRS1 assay wells contained rTcKRS1 assay buffer (100 mM Tris; […]; HsKRS reactions contained HsKRS assay buffer (30 mM Tris; […].
All assays were performed by adding 25 μl of assay buffer with enzyme to compound-containing assay wells before the reaction was initiated with the addition of a 25 μl substrate mixture containing L-lysine, ATP and pyrophosphatase. […] Following a 6–h reaction at room temperature, the assays were stopped by the addition of 50 μl BIOMOL Green. The BIOMOL Green signal was allowed to develop for 30 min before the absorbance of each well was read at 650 nm using a PheraStar plate reader (BMG). All liquid-dispensing steps were carried out using a Thermo Scientific WellMate dispenser (Matrix).

[4] = target: T1, hERG channel (Homo sapiens, UniProt Q12809); test: In vitro hERG fluorescence polarization assay; assay type: binding; settings: read-out: hERG inhibition (IC50 value)
T1 construct: purchased Invitrogen
T1 sequence (Q12809 whole entry): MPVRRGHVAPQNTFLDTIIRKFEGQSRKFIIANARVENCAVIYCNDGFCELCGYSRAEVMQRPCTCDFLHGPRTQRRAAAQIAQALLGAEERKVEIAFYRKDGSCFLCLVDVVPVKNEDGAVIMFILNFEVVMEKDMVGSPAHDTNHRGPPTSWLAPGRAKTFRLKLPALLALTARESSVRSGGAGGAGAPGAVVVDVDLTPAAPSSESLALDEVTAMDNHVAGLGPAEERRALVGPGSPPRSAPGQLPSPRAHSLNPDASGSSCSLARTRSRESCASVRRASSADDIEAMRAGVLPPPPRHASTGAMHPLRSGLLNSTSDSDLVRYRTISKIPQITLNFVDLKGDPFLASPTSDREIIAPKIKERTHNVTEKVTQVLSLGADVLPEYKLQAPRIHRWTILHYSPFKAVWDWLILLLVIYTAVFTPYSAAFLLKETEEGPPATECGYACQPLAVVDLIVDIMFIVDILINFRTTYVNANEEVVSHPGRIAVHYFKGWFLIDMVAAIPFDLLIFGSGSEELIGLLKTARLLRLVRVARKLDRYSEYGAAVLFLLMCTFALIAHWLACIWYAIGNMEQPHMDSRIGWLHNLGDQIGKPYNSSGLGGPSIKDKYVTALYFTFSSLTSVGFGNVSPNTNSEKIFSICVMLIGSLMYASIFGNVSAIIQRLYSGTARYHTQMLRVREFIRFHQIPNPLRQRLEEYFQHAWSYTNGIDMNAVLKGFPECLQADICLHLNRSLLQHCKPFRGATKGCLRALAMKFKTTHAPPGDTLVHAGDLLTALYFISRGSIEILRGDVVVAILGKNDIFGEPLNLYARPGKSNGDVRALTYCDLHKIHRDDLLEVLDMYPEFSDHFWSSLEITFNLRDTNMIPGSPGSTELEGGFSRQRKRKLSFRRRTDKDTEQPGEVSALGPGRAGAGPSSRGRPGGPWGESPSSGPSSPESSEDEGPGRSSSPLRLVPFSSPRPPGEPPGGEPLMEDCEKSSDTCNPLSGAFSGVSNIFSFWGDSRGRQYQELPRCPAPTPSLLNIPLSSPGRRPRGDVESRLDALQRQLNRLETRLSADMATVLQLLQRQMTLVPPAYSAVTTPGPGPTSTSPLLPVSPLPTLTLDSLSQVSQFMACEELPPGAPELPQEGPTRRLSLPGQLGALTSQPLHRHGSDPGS
Procedure: In vitro hERG fluorescence polarization assay
Compounds were assessed for potential hERG channel inhibition using the Predictor® hERG Fluorescence Polarization Assay Kit (Invitrogen), as per manufacturer’s instructions.
Compounds were screened with test compounds at concentrations ranging from 0.0003 – 30
µM. Fluorescence polarization was measured using EnVision plate reader fitted with polarized filters (excitation: 531 nm; emission: 595 nm). IC50 values were determined using GraphPad

[5] = test system: L. donovani (MHOM-ET-67/L82) axenic amastigote; test: Drug sensitivity assay, L. donovani axenic amastigotes; assay type: cell-based; settings: Leishmania donovani, WT
[6] = test system: T. cruzi (Sylvio X10/7A1 strain) intracellular amastigote (in Vero cells); test: microbe, parasite or virus in culture; assay type: cell-based; settings: for Fold-shift (relative to WT): intracellular amastigote in Vero cells; for EC50: Trypanosoma cruzi, Vero
[7] = Metabolic stability in mouse liver microsomes; assay type: in vitro ADME; settings: 1 µM, NADPH
Procedure: The metabolic stability of key compounds was assessed using the protocol established by TCG
Lifesciences (India). Briefly, mouse liver microsomes (MLM) were incubated with test
compounds or controls (atenolol, propranolol, diclofenac and verapamil) at 1 µM. Reactions
were initiated by the addition of NADPH and terminated by the addition of acetonitrile. […]

[8] = target: CYP1A2 (Homo sapiens, UniProt P05177); test: In vitro CYP inhibition, 1A2; assay type: in vitro ADME
Sequence of CYP1A2 (P05177 whole entry, canonical isoform): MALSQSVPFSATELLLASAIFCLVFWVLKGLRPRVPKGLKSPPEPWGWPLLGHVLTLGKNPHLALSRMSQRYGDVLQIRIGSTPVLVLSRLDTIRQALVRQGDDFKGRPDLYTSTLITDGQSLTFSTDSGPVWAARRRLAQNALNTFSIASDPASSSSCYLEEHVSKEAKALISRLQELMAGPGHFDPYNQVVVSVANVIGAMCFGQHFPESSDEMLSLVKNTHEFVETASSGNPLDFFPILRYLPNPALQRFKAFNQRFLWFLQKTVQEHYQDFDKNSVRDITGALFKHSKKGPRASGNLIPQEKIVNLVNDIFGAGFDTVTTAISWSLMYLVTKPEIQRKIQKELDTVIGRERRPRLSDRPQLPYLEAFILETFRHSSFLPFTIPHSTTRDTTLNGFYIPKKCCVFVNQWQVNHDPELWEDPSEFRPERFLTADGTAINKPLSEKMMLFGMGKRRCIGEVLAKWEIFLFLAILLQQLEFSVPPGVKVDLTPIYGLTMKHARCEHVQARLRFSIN
Procedure: (§1) Compounds were screened for CYP inhibition activity using the protocol established by TCG Lifesciences (India). The activity of five CYP450 isoforms: 1A2; 2C9; 2D6, 3A4; and 2C19 was monitored in the presence of test or control (miconazole) compounds at 10 µM. Reactions were terminated after 10 min (30 min for CYP2C19) by the addition of acetonitrile, centrifuged and analysed via LC-MS/MS. […]

[9] = test system: T. b. rhodesiense; test: Drug sensitivity assay, T. b. rhodesiense bloodstream forms; assay type: cell-based; settings: Trypanosoma brucei, read-out: EC50 value
[10] = target: CYP2C19 (Homo sapiens, UniProt P33261); test: In vitro CYP inhibition, 2C19; assay type: in vitro ADME
Sequence of CYP2C19 (P33261 whole entry, species assumed): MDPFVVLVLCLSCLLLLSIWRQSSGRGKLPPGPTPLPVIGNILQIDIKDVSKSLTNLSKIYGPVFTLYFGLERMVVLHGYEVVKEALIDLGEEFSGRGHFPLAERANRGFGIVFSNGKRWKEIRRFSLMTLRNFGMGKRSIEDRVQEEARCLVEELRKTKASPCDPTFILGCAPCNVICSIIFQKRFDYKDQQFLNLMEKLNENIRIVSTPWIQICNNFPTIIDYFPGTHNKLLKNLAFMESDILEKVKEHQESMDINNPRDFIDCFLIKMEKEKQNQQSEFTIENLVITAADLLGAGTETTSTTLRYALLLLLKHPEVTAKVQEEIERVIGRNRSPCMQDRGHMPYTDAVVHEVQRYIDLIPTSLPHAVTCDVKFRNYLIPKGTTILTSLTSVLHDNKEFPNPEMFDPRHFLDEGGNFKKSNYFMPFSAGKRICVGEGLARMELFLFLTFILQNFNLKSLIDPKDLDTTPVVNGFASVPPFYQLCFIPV
Procedure: as §1

[11] = target: CYP2C9 (Homo sapiens, UniProt P11712); test: In vitro CYP inhibition, 2C9; assay type: in vitro ADME
Sequence of CYP2C9 (P11712 whole entry): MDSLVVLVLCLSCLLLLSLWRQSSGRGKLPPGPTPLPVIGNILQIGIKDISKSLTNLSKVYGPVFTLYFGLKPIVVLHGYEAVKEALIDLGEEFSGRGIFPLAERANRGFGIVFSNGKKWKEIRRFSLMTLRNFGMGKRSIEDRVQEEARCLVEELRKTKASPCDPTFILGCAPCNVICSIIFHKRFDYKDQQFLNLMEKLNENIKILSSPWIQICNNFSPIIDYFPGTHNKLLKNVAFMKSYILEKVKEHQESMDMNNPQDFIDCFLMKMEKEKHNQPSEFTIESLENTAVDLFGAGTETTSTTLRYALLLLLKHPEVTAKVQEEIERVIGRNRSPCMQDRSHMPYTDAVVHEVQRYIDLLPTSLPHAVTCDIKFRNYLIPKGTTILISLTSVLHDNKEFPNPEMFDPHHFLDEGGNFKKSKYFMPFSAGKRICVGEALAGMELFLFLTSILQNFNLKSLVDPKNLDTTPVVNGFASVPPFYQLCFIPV
Procedure: as §1

[12] = read-out: EC50 value, KRS1 OE (overexpressing), epimastigote
[13] = read-out: EC50 value, KRS1 S319L, epimastigote
[14] = read-out: EC50 value, WT, epimastigote
[15] = KRS1 OE, promastigote, read-out: EC50 value
[16] = WT, promastigote, read-out: EC50 value
[17] = read-out: EC50 value, KRS1 S324L, promastigote
[18] = read-out: EC50 value, KRS1 OE, intracellular amastigote in Vero cells
[19] = read-out: EC50 value, KRS1 S319L, intracellular amastigote in Vero cells
[20] = read-out: EC50 value, WT, intracellular amastigote in Vero cells

SMILES: Cc1nc(N)c2c(F)c(F)c(SC3CCCCC3)c(F)c2n1 [DMU759, 7-(Cyclohexylthio)-5,6,8-trifluoro-2-methylquinazolin-4-amine]
- Fold-shift (relative to WT) ([1]; KRS1 OE): 10 fold
- Fold-shift (relative to WT) ([1]; KRS1 S319L): 41 fold
- EC50 [1, 12]: 134 ± 3 nM
- EC50 [1, 13]: 565 ± 41 nM
- EC50 [1, 14]: 14 ± 0.3 nM
- resistance conferred by mutation of a single amino acid in the KRS1 active site ([1]; in vitro, parasite not stated (discussion)): > 20 fold
- Fold-shift (relative to WT) ([2]; KRS1 OE, promastigote): 13 fold
- Fold-shift (relative to WT) ([2]; KRS1 S324L, promastigote): 12 fold
- EC50 [2, 15]: 1470 ± 56 nM
- EC50 [2, 16]: 115 ± 0.1 nM
- EC50 [2, 17]: 1320 ± 32 nM
- extent of inhibition of TcKRS1 [3]: full inhibition
- IC50 [3]: 15 nM
- IC50 [4]: 12.2 ± 1.1 µM
- EC50 [5]: 284 ± 20 nM
- Fold-shift (relative to WT) ([6]; KRS1 OE): 8 fold
- Fold-shift (relative to WT) ([6]; KRS1 S319L): 97 fold
- EC50 [6, 18]: 121 ± 19 nM
- EC50 [6, 19]: 1540 ± 130 nM
- EC50 [6, 20]: 16 ± 1 nM
- Mouse liver microsome stability [7]: > 500 µL/min/mg
- inhibition at 10 min, 10 µM [8]: 61.5 ± 0.9%
- EC50 ([9]; WT, BSF): 313 ± 183 nM
- inhibition at 30 min, 10 µM [10]: 12.8 ± 2.8%
- inhibition at 10 min, 10 µM [11]: 7.9 ± 0.8%

SMILES: Cc1nc(N)c2c(F)c(F)c(NC3CCCC3)c(F)c2n1 [DMU371, N7-Cyclopentyl-5,6,8-trifluoro-2-methylquinazoline-4,7-diamine]
- EC50 [1, 12]: 624 ± 14 nM
- EC50 [1, 13]: 326 ± 26 nM
- EC50 [1, 14]: 63 ± 2.4 nM
- EC50 [2, 15]: 1860 ± 63 nM
- EC50 [2, 16]: 524 ± 9 nM
- EC50 [2, 17]: 1740 ± 49 nM
- extent of inhibition of TcKRS1 [3]: full inhibition
- IC50 [3]: 185 nM
- IC50 [4]: 7.6 ± 1.3 µM
- EC50 [5]: 5320 ± 2780 nM
- EC50 [6, 18]: 888 ± 117 nM
- EC50 [6, 19]: 589 ± 57 nM
- EC50 [6, 20]: 205 ± 24 nM
- Mouse liver microsome stability [7]: > 500 µL/min/mg
- inhibition at 10 min, 10 µM [8]: 74.8 ± 0.5%
- EC50 [9]: 1090 ± 420 nM
- inhibition at 30 min, 10 µM [10]: 6.1 ± 1.3%
- inhibition at 10 min, 10 µM [11]: 8.6 ± 0.6%
